Results on 8 molecules are retold here after patent publication US20110280940A1, “Di-Vanilloyl And Tri-Vanilloyl Derivatives For Use In Anti-Cancer Therapy” (priority 2008, published 2011).

In one test the test system is VM21 melanoma cells. The test can be described thus: MTT colorimetric assay, overall cell growth, VM21. Format: cell-based, human. As to conditions: Homo sapiens; MTT, 72 hours of incubation; read-out: In Vitro IC50 Growth Inhibitory Values, VM21. The text has this:
(§1) The amount of formazan obtained at the end of the experiment, measured by means of a spectrophotometer, is directly proportional to the number of living cells. Optical density determination thus enabled a quantitative measurement of the effect of the investigated compounds as compared to the control condition (untreated cells) and/or to other reference compounds. Eleven human cancer cell lines and one mouse melanoma cell-line (B16F10) described in Table 2 were used in the following MTT tests. These cancer cell lines cover seven histological cancer types including prostate (PC3), glioma (Hs683, T98G, U373, melanoma (VM21, VM28), non-small-cell-lung (A549), breast (MCF-7), colon (LoVo) and oesophageal (OE21, OE33) cancers. […] Each cell line was seeded in its appropriate culture medium. The detailed experimental procedure was the following: after a 24-hour period of incubation at 37° C., the culture medium was replaced by 100 μl of fresh medium in which the tested compound was previously dissolved, at the following molar concentrations: 10^-8 […] and 10^-4 M. Each experiment was performed in sestuplicates (6 times). After 72 hours of incubation at 37° C. with (experimental conditions) or without (control condition) the compound to be tested, the medium was replaced by 100 μl MTT dissolved in RPMI (1640 without phenol red) at a concentration of 0.5 or 1 mg/ml. The micro-wells were subsequently incubated during 3 hours and a half at 37° C. and centrifuged at 1300 rpm during 10 minutes. MTT was removed and formazan crystals formed were dissolved in 100 μl DMSO. The micro-wells were shaken for 5 minutes and read on a spectrophotometer at wavelengths of 570 nm (maximal formazan absorbance). For each experimental condition, the mean optical density was calculated, allowing the determination of the percentage of remaining living cells in comparison to the control. […] The origin of all the cell lines we used, along with their biological characteristics, and the validation procedures of the MTT colorimetric assay as employed here are fully detailed in Van Quaquebeke et al., 2005, J Med Chem 48:849-856; […]
A general note: Tetrazolium assays rely on reduction of a dye to a coloured formazan, in cell work by metabolically active cells.

Another test deals with U373-MG glioma cell line. Briefly: Cellular imaging (quantitative videomicroscopy), global growth ratio, U373. Format: cell-based. To be noted: Homo sapiens, 50 μM, 72 h, read-out: Global Grow Ratio Treated/Ct (GGR T/Ct) determined by Video Quantitative microscopy, U373. The text has this:
(§2) As the MTT test is based on the mitochondria functions, we also investigated the effects of the di- and tri-vanilloyl derivatives according to the invention on cell proliferation, migration and morphology by means of a cellular imaging approach (Debeir et al., Cytometry 60:29-40, 2004; Debeir et al., IEEE Trans Med Imaging 24:697-711, 2005) either in the human U373-MG glioma cell line, which is apoptosis-resistant but autophagy-sensitive (Lefranc F et al., Neurosurgery 2008) and in the human A549 non-small-cell-lung cancer cell line, which is apoptosis-resistant and autophagy-resistant (Mijatovic T et al., Neoplasia 2006, May; 8(5):402-12).
(§3) Investigations have also been performed in human normal fibroblasts (WS1 and WI38—see Tables 4 and 5). Cellular imaging relied on the use of computer-assisted phase-contrast microscopy making possible to film the behaviour of living cells in culture dishes for several days.
(§4) Cells were seeded in a 25-cm^2 flask at a low density, treated or not with the vanilloyl-esters invention (at a concentration of 50 μM) and filmed thereafter for a period of 72 h. The experiment was conducted in quadruplicates (in duplicates for DLT-95 compounds).
(§5) The behaviour of the cells, in terms of morphology, growth and death were thus investigated. The effect on the overall growth was measured by counting the number of cells on the first (0 h) and the last image (72 h) of each film. The global growth ratio (GGR) was then deduced by dividing the number of cells on the last image by the number of cells on the first image. The ratio GGRtreated cells/GGRcontrol cells, was further calculated thereby obtaining a value that describes the effect of compounds of the present invention on the overall cell growth. The methodology is fully described and validated in Debeir et al., 2008, Exp Cell Res 314:2985-2998 and Mathieu et al., 2009, J Cell Mol Med, Feb. 20, 2009.
(§6) Illustrative pictures (time=0 h and 72 h) of glioblastoma and normal fibroblast cell line left untreated or treated with poly-vanillic compounds according to the invention (50 μM) are provided in FIG. 1 (U373 glioblastoma) and FIG. 2 (normal fibroblasts). The GGR parameter analyses confirmed the marked impairment of cell growth in both cancer cell lines of the poly-vanillic compounds according to the invention (Table 5).

Test [1] deals with A549 non-small-cell-lung cancer cell line. Briefly: Cellular imaging (quantitative videomicroscopy), global growth ratio, A549. Format: cell-based. To be noted: Homo sapiens, 72 h, read-out: Global Grow Ratio Treated/Ct (GGR T/Ct) determined by Video Quantitative microscopy, A549.
Excerpt: as §2, §3, §4, §5, §6

Test [2] relates to Eleven human cancer cell lines. Briefly: MTT colorimetric assay, across the eleven human cancer cell lines. Format: cell-based. As to conditions: mean ± SEM over the 11 human cancer cell lines, MTT, 72 hours; read-out: In Vitro IC50 Growth Inhibitory Values, m ± SEM.
Excerpt: as §1

For a further test, the system named is VM48 melanoma cells. The test can be described thus: MTT colorimetric assay, overall cell growth, VM48. It counts as cell-based, human. To be noted: Homo sapiens; MTT, 72 hours of incubation; read-out: In Vitro IC50 Growth Inhibitory Values, VM48.
For test [3], the system named is PC-3 prostate cancer cells. The test can be described thus: MTT colorimetric assay, overall cell growth, PC-3. It counts as cell-based, human. As to conditions: Homo sapiens, 72 hours of incubation, read-out: In Vitro IC50 Growth Inhibitory Values, PC-3.
Excerpt: as §1

The next test concerns Hs683 glioma cells. Briefly: MTT colorimetric assay, overall cell growth, Hs683. As to conditions: Homo sapiens, Hs 683, 72 hours of incubation, read-out: In Vitro IC50 Growth Inhibitory Values, Hs683. It counts as cell-based, human.
Excerpt: as §1

The subject of test [4] is MCF-7 breast cancer cells. The test can be described thus: MTT colorimetric assay, overall cell growth, MCF-7. It counts as cell-based, human. To be noted: Homo sapiens, MCF7, 72 hours of incubation, read-out: In Vitro IC50 Growth Inhibitory Values, MCF-7.
Excerpt: as §1

The next test has as its system T98G glioma cells. Briefly: MTT colorimetric assay, overall cell growth, T98G. Format: cell-based, human. As to conditions: Homo sapiens, T98G, 72 hours of incubation, read-out: In Vitro IC50 Growth Inhibitory Values, T98G.
Excerpt: as §1

In another test the test system is U373 glioblastoma cells. Briefly: MTT colorimetric assay, overall cell growth, U373. Format: cell-based, human. To be noted: Homo sapiens, U373 MG, 72 hours of incubation, read-out: In Vitro IC50 Growth Inhibitory Values, U373.
Excerpt: as §1

The test system of test [5] is OE33 oesophageal cancer cells. Briefly: MTT colorimetric assay, overall cell growth, OE33. Format: cell-based, human. To be noted: Homo sapiens, OE33, 72 hours of incubation, read-out: In Vitro IC50 Growth Inhibitory Values, OE33.
Excerpt: as §1

Test [6] concerns OE21 oesophageal cancer cells. The test can be described thus: MTT colorimetric assay, overall cell growth, OE21. It counts as cell-based, human. As to conditions: Homo sapiens, OE21, 72 hours of incubation, read-out: In Vitro IC50 Growth Inhibitory Values, OE21.
Excerpt: as §1

A further test deals with LoVo colon cancer cells. The test can be described thus: MTT colorimetric assay, overall cell growth, LoVo. It counts as cell-based, human. To be noted: Homo sapiens, LoVo, 72 hours of incubation, read-out: In Vitro IC50 Growth Inhibitory Values, LoVo.
Excerpt: as §1

Test [7] relates to B16F10 melanoma cell-line. Briefly: MTT colorimetric assay, overall cell growth, B16F10. Format: cell-based, mouse. To be noted: Mus musculus, B16-F10, 72 hours of incubation, read-out: In Vitro IC50 Growth Inhibitory Values, B16F10.
Excerpt: as §1

The subject of test [8] is A549 non-small-cell-lung cancer cells. Briefly: MTT colorimetric assay, overall cell growth, A549. It counts as cell-based, human. To be noted: Homo sapiens, A549, 72 hours of incubation, read-out: In Vitro IC50 Growth Inhibitory Values, A549.
Excerpt: as §1

The test system of test [9] is cancer cells versus normal fibroblasts. The test can be described thus: Anti-proliferative, anti-migratory and anti-kinase effects, cancer cells versus normal fibroblasts. As to conditions: anti-proliferative. Format: cell-based, human. The text has this: The compounds of the invention were subsequently evaluated for their 1) anti-proliferative effect (by means of the colorimetric MTT assay), 2) pro-autophagic and pro-apoptotic effect (by means of flow cytometry analyses), and 3) anti-migratory effect (by means of quantitative videomicroscopy), in the following human cancer cell-lines: a) U373, T98G and Hs683 glioblastoma cells, b) VM21 and VM48 melanoma cells, c) PC-3 prostate cancer cells, d) MCF-7 breast cancer cells, e) LoVo colon cancer cells, f) OE21 oesophageal cancer cells, and g) A549 NSCLC cancer cells, as well as in human WS1 and WI38 normal fibroblasts (i.e. non-cancer cells).
The best current hits, DLT12 and DLT4, display anti-proliferative, anti-migratory effects and anti-kinase effects which are ˜10 times more pronounced in cancer cells than in normal fibroblasts. […] FIG. 1 illustrates the data obtained with respect to the human U373 glioblastoma model, while FIG. 2 illustrates the data obtained in human normal fibroblasts. […] DLT-95 and its derivatives DLT-95-F and DLT-95-Cl were also shown to have a significant effect on the proliferation 7 different human cancer cell-lines.

The structures appear in SMILES notation. A value given as a limit tells only on which side of the number the result lay.

Regarding `COc1cc(C(=O)OCCCOC(=O)c2ccc(O)c(OC)c2)ccc1O` [DLT2, Propane-1,3-diyl bis-(4-hydroxy-3-methoxybenzoate)], the IC50 (in general, the midpoint of a concentration-inhibition curve) with VM21 melanoma cells is 72 µM; in [2], > 100 µM; in the test with VM48 melanoma cells it was 68 µM. Further, the activity at 50 µM worked out at 40% in the test on U373-MG glioma cell line and 110% in test [1].

Consider `COc1cc(C(=O)OCCCCCOC(=O)c2ccc(O)c(OC)c2)ccc1O` [DLT3, Pentane-1,5-diyl bis-(4-hydroxy-3-methoxybenzoate)], for which the IC50 (in test [3]; in the test with VM21 melanoma cells; in test [2]; in the test on VM48 melanoma cells) was > 100 µM throughout. For the same molecule, the activity at 50 µM in the test with U373-MG glioma cell line is 70%; in test [1], 90%.

On to `COc1cc(C(=O)OC2CCCC[C@@H]2OC(=O)c2ccc(O)c(OC)c2)ccc1O` (stereo partly drawn) [DLT7, S,S-trans-cyclohexane-1,2-diyl bis-(4-hydroxy-3-methoxybenzoate)], for which the IC50 in [3] worked out at 59 µM; in the test with VM21 melanoma cells, 35 µM; in the test on Hs683 glioma cells it was 57 µM; in test [4], 47 µM; in the test on T98G glioma cells it was 70 µM; in the test on U373 glioblastoma cells, 20 µM. Besides, the IC50 was found to be 66 µM in [5]; 41 µM in test [6]; 44 µM with LoVo colon cancer cells; 47 ± 4 µM in test [2]; 36 µM with VM48 melanoma cells; 49 µM in [7]. The IC50 in test [8] turned out to be 43 µM. The activity at 50 µM (with U373-MG glioma cell line; in test [1]) was 20% throughout.

As for `COc1cc(C(=O)O[C@@H]2CCCC[C@H]2OC(=O)c2ccc(O)c(OC)c2)ccc1O` [DLT8, R,R-trans-cyclohexane-1,2-diyl bis-(4-hydroxy-3-methoxybenzoate)], the IC50 in [3] is 77 µM; in the test on VM21 melanoma cells, 77 µM; with Hs683 glioma cells, > 100 µM; in test [4] it was 75 µM; with T98G glioma cells, > 100 µM; in the test on U373 glioblastoma cells it was 53 µM. The concentration for half-maximal inhibition (IC50) was 77 µM in [5]; 45 µM in test [6]; 64 µM in the test with LoVo colon cancer cells; > 100 µM in test [2]; 72 µM in the test with VM48 melanoma cells; 59 µM in test [7]. Also, in [8], the IC50 is 76 µM. The activity at 50 µM (in the test with U373-MG glioma cell line; in test [1]) was 50% in each case.

Consider `COc1cc(C(=O)O[C@H]2CCCC[C@H]2OC(=O)c2ccc(O)c(OC)c2)ccc1O` [DLT9, cis-cyclohexane-1,2-diyl bis-(4-hydroxy-3-methoxybenzoate)], for which the IC50 turned out to be 35 µM in test [3]; 44 µM with VM21 melanoma cells; 49 µM in the test with Hs683 glioma cells; 76 µM with T98G glioma cells; 43 µM with U373 glioblastoma cells; 48 ± 3 µM in test [2]. The IC50 with VM48 melanoma cells stood at 57 µM. Further, the activity at 50 µM (in the test on U373-MG glioma cell line; in test [1]) was 20% throughout.

For the molecule `COc1cc(C(=O)OCCCCOC(=O)c2ccc(O)c(OC)c2)ccc1O` [DLT10, Butane-1,4-diyl bis-(4-hydroxy-3-methoxybenzoate)], the results for the IC50 (in the test with VM21 melanoma cells; in test [2]; in the test on VM48 melanoma cells) were 60 µM, > 100 µM and 52 µM, respectively. The activity at 50 µM in the test on U373-MG glioma cell line stood at 50%; in [1] it was 20%.

Take `COc1cc(C(=O)OCCCCCCCOC(=O)c2ccc(O)c(OC)c2)ccc1O` [DLT12, Heptane-1,7-diyl bis-(4-hydroxy-3-methoxybenzoate)]: the “effects more pronounced in cancer cells than in normal fibroblasts” value in test [9] is ~10 times. For the same molecule, the IC50 in the test on VM21 melanoma cells was 32 µM; in test [2] it was 46 µM; with VM48 melanoma cells, 38 µM. For the same molecule, the activity at 50 µM (in the test on U373-MG glioma cell line; in test [1]) was 20% throughout.

Consider `COc1cc(C(=O)OCCCCCCCCOC(=O)c2ccc(O)c(OC)c2)ccc1O` [DLT13, Octane-1,8-diyl bis-(4-hydroxy-3-methoxybenzoate)], for which the IC50 came to 28 µM in the test on VM21 melanoma cells, 42 µM in [2] and 26 µM in the test on VM48 melanoma cells. Also, the activity at 50 µM (in the test on U373-MG glioma cell line; in [1]) was 20% each time.
